Measured values: US20230000848A1, “METHODS OF TREATING NASH” (Gilead Sciences, Inc., priority 2021, published 2023)

Experiments:
liver cytokine levels [1] = assay: Liver cytokine levels by ELISA from liver lysates, GAN mouse model; type: in vivo, mice
Description: (§1) The effect of COT inhibitor Compound A, ACC inhibitor Compound B, Cenicriviroc (CVC), and the combination of Compound A and Compound B in the Gubra amylin NASH mouse model (GAN) was determined.

[2] = system: Gubra amylin NASH (GAN) mouse model; assay: NAFLD activity score from H&E stained liver sections, GAN mouse model; type: in vivo, mice; conditions: 60 mg/kg BID
Description: The effect of COT inhibitor Compound A, ACC inhibitor Compound B, Cenicriviroc (CVC), and the combination of Compound A and Compound B in the Gubra amylin NASH mouse model (GAN) was determined. [table] FIG. 10 plots NAFLD activity score of Compound A (60 mg/kg BID), Compound B (10 mg/Kg QD), CVC (100 mg/Kg QD), and the combination Compound A and Compound B in from liver tissue the Gubra amylin NASH mouse model. CVC=Cenicriviroc, used as a control (100 mg/Kg QD). Individual components comprising the NAFLD score includes hepatocellular ballooning (FIG. 11A), lobular inflammation (FIG. 11B), and steatosis score (FIG. 11C). NAFLD activity score was determined by scoring of steatosis, inflammation, and hepatocyte ballooning from hematoxylin and eosin stained liver sections.

[3] = system: Gubra amylin NASH (GAN) mouse model; assay: Liver total cholesterol, GAN mouse model; type: in vivo, mice; conditions: treatment group 3 (60 mg/kg BID)
Description: as §1
FIG. 12 plots the liver total cholesterol levels for treatment group 1 (wt), vehicle (treatment group 2), COT inhibitor (Compound A, treatment group 3), ACC inhibitor (Compound B, treatment group 5), and combination of Compound A and Compound B (treatment group 4) in the Gubra amylin NASH (GAN) mouse model. Cenicriviroc (CVC) used as a control (treatment group 6). Total cholesterol levels were calculated from was measured using commercial kits (Roche Diagnostics) on the cobas c 501 autoanalyzer according to the manufacturer's instructions.

[4] = system: Choline Deficient High Fat Diet (CDHFD) model of fatty liver; assay: Picrosirius red staining (PSR) of liver tissue, rat choline deficient high fat diet (CDHFD) model; type: in vivo, Male Wistar Han Rats; conditions: for fibrosis as measured by PSR, decrease relative to vehicle: vs vehicle group 2
Description: Compound A and Compound B were studied in a Choline Deficient High Fat Diet (CDHFD) model as described below. Rats enrolled in this study were first fed a choline deficient high fat diet (CDHFD) for 42 days prior to test article administration Animals were then split into treatment groups 1-8 and test article was administered as detailed in Table 1 for 42 days. [table] Liver tissue obtained at the end of the study was subjected to picrosirius red staining (PSR) was assessed according to standard techniques. Liver hydroxyproline content was measured from cryopowdered liver tissue. Chloramine-T was used to oxidize the free hydroxyproline for the production of a pyrrole. Addition of Ehrlich's reagent results in the formation of a chromophore that can be measured at 550 nm on a spectramax plate reader. FIG. 2 plots the PSR (% area) for control (treatment group 1), start and end for the vehicle (treatment group 2), COT inhibitor (Compound A referred to as TPL2i, 100 mg/Kg QD (low dose), 100 mg/Kg BID (high dose)), ACC inhibitor (Compound B referred to as ACCi, 10 mg/kg QD), and coadministration of Compound B with Compound A (treatment groups 5 and 6). Data in FIG. 2 is based on all animals in the treatment group. In FIG. 2, a higher value for PSR % area is reflective of a higher level of fibrosis.

[5] = Body weight, Gubra amylin NASH (GAN) mouse model; type: in vivo, mice; conditions: 60 mg/kg PO BID, after 84 days of dosing
Description: as §1
FIG. 5 plots the body weight of treatment group 1 (wt), vehicle (treatment group 2), COT inhibitor (Compound A, 60 mg/kg BID), ACC inhibitor (Compound B, 10 mg/Kg QD), and combination of Compound A and Compound B (treatment group 4) in the Gubra amylin NASH (GAN) mouse model. Cenicriviroc (CVC) used as a control (100 mg/Kg QD).

[6] = system: Gubra amylin NASH (GAN) mouse model; assay: Alpha-smooth muscle actin (aSMA) IHC on liver tissue, GAN mouse model; type: in vivo, mice; conditions: treatment group 3 (60 mg/kg BID) vs vehicle group 2, % area IHC
Description: as §1
FIG. 9 plots the […] (aSMA) levels from liver tissue of treatment group 1 (wt), vehicle (treatment group 2), COT inhibitor (Compound A, treatment group 3), ACC inhibitor (Compound B, treatment group 5), and combination of Compound A and Compound B (treatment group 4) in the Gubra amylin NASH (GAN) mouse model. Cenicriviroc (CVC) used as a control (treatment group 6). Alpha-smooth muscle actin (aSMA) levels were calculated from % area of alpha-SMA antibody staining on liver tissue (IHC).

[7] = system: Gubra amylin NASH (GAN) mouse model; assay: Picrosirius red staining (PSR) of liver tissue, GAN mouse model; type: in vivo, mice
Description: as §1
(§2) FIG. 8 plots liver fibrosis levels based on percent PSR for treatment group 1 (wt), vehicle (treatment group 2), COT inhibitor (Compound A, treatment group 3), ACC inhibitor (Compound B, treatment group 5), and combination of Compound A and Compound B (treatment group 4) in the Gubra amylin NASH (GAN) mouse model. Cenicriviroc (CVC) used as a control (treatment group 6).

[8] = Whole body fat mass by ECHO MRI, GAN mouse model; type: in vivo, mice; conditions: 60 mg/kg PO BID, after 84 days of dosing
Description: as §1
as §2, with “6” for “8”, “the” for “liver fibrosis levels based on”, “fat mass of” for “PSR for”, “6). Fat mass was calculated by ECHO MRI.” for “6).”

liver cytokine levels [9] = assay: Liver cytokine levels by ELISA from liver lysates, rat CDHFD model; type: in vivo, Male Wistar Han Rats; conditions: TPL2i = group 4, TPL2i+ACCi = group 6, vs vehicle
Description: (§3) Compound A and Compound B were studied in a Choline Deficient High Fat Diet (CDHFD) model as described below. Rats enrolled in this study were first fed a choline deficient high fat diet (CDHFD) for 42 days prior to test article administration Animals were then split into treatment groups 1-8 and test article was administered as detailed in Table 1 for 42 days.

[10] = system: Choline Deficient High Fat Diet (CDHFD) model of fatty liver; assay: Liver hydroxyproline (OH-P) content, rat CDHFD model; type: in vivo, Male Wistar Han Rats; conditions: 100 mg/Kg PO BID (treatment group 4), 42 days, vs vehicle group 2
Description: as §3
Liver tissue obtained at the end of the study was subjected to picrosirius red staining (PSR) was assessed according to standard techniques. Liver hydroxyproline content was measured from cryopowdered liver tissue. Chloramine-T was used to oxidize the free hydroxyproline for the production of a pyrrole. Addition of Ehrlich's reagent results in the formation of a chromophore that can be measured at 550 nm on a spectramax plate reader.
FIG. 3 plots liver hydroxyproline (OH—P) content from liver tissue for control (treatment group 1), start and end for the vehicle (treatment group 2), COT inhibitor (Compound A referred to as TPL2i, low dose=100 mg/Kg QD, high dose=100 mg/Kg BID), ACC inhibitor (Compound B referred to as ACCi, 10 mg/kg QD), and coadministration of Compound B with Compound A (treatment group 5 (TPL2i low dose+ACCi) and treatment group 6 (TPL2i high dose+ACCi)). Liver hydroxyproline (OH—P) content was calculated from liver tissue samples. […]

CCCCOCCOc1ccc(-c2ccc3c(c2)/C=C(/C(=O)Nc2ccc([S@@+]([O-])Cc4cncn4CCC)cc2)CCCN3CC(C)C)cc1 [CVC, Cenicriviroc, reference compound]
liver cytokine levels (liver cytokine levels [1]; treatment group 6 (100 mg/Kg)): Changes in cytokine levels were not observed

Cc1nc(F)ccc1[C@H](Nc1cc(Cl)c2ncc(C#N)c(NCC(C)(C)C)c2c1)c1cn(C2(C(F)F)CC2)nn1 [Compound A]
liver IL-1β level (liver cytokine levels [1]; treatment group 3 vs vehicle): statistically significant decreases
liver KC/GRO level (liver cytokine levels [1]; treatment group 3 vs vehicle): statistically significant decreases
liver MCP-1 level (liver cytokine levels [1]; treatment group 3 vs vehicle): statistically significant decreases
liver TNF-α level (liver cytokine levels [1]; treatment group 3 vs vehicle): statistically significant decreases
NAFLD activity score at the end of the study compared to vehicle [2]: more animals had a lower NAFLD activity score
Liver total cholesterol reduction [3]: 40%
fibrosis as measured by PSR, decrease relative to vehicle ([4]; 100 mg/Kg PO BID (treatment group 4, TPL2i high dose), 42 days): 55%
fibrosis as measured by PSR, decrease relative to vehicle ([4]; 100 mg/Kg PO QD (treatment group 3, TPL2i low dose), 42 days): 41%
liver fibrosis in PSR stained liver tissue (FIG. 1) compared to vehicle ([4]; treatment group 4 (100 mg/Kg BID) vs vehicle group 2): less liver fibrosis
body weight decrease [5]: 16%
Alpha-smooth muscle actin (aSMA) levels, reduction compared to vehicle [6]: 41%
fibrosis measured by PSR, decrease compared to vehicle ([7]; 60 mg/kg PO BID (treatment group 3) vs vehicle group 2): 46%
PSR relative to Compound B alone ([7]; BID treatment): reduced PSR
fat mass decrease [8]: 31%
liver IL-1b level (liver cytokine levels [9]): statistically significant decreases
liver IL-10 level (liver cytokine levels [9]): statistically significant decreases
liver IL-18 level (liver cytokine levels [9]): statistically significant decreases
liver MIP1-α level (liver cytokine levels [9]): statistically significant decreases
reduction in liver hydroxyproline compared to vehicle [10]: 38%

COc1ccccc1[C@H](Cn1c(=O)n(C(C)(C)C(=O)O)c(=O)c2c(C)c(-c3ncco3)sc21)O[C@H]1CC[C@@H](O)CC1 [Compound B]
PSR reduction ([4]; 10 mg/kg PO QD (treatment group 7), 42 days): 33%
